Laboratory results reported in patent publication US20260200921A1, “SUBSTITUTED AMINOPYRIDINE COMPOUNDS AS AKT INHIBITORS” (Atavistik Bio, Inc., priority 2023, published 2026).

Key:
AKT1 E17K = molecular target: T1, AKT1 E17K (Homo sapiens, UniProt P31749, E17K); assay: AKT1 E17K kinase assay (TR-FRET, Lance); type: biochemical; details: full-length human recombinant AKT1 E17K activated by PDPK1; Ulight-CREBtide substrate; either 50 μM ATP or 2 mM ATP
T1 construct: Purified human recombinant kinase full-length AKT1 E17K was expressed in insect cells; made in house; host or cells: insect cells
T1 sequence (P31749 whole entry E17K): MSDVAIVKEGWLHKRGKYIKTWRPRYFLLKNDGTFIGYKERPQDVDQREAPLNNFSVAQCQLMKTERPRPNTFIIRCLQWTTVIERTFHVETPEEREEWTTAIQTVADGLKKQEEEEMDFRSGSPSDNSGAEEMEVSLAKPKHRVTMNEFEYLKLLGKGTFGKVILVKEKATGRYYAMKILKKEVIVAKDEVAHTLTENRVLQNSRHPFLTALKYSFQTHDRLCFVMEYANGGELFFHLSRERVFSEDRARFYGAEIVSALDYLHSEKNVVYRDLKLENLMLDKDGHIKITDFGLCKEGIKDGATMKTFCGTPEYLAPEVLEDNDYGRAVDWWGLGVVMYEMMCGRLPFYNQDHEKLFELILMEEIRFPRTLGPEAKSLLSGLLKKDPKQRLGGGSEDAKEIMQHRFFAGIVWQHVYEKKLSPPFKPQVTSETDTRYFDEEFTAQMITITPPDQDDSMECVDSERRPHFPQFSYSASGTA
Method: AKT1 E17K kinase assay: Inhibitory effects of compounds on AKT1 E17K were undertaken in a 10-pt dose response kinase activity assay measuring phospho-peptide product formation based on TR-FRET signal as described in the following paragraph.
(§1) Purified human recombinant kinase full-length AKT1 E17K was expressed in insect cells and activated in vitro by PDPK1. Ulight™-CREBtide (PerkinElmer, catalog number TRF0107) was used as the peptide substrate. The reaction buffer consisted of 50 mM HEPES pH 7.5, 10 mM MgCl2, 0.01% Triton X-100, 0.01% BSA, 2 mM DTT, 0.6 nM AKT1 E17K, 50 nM Ulight™-CREBtide and either 50 μM ATP or 2 mM ATP. The compound solution was prepared as 10 mM DMSO stock. For the assay, a 1:3 serial dilution 10-pt dose response of test compounds, in duplicate, for each concentration were dispensed into a 384-well plate (Corning, catalog number 4513). Final DMSO concentration in the assay was 1%. The enzyme mixture (5 μL, 1.2 nM) were added and the mixture was incubated for 15 min at RT prior to the start of the kinase reaction by the addition of 5 μL substrate mixture (100 nM Ulight™-CREBtide). The reaction was stopped after 60 min of incubation at RT by the addition of 10 μL of Detection Mix (PerkinElmer, #CR97-100) consisting of Europium-anti-phospho-CREB (Ser133) (Perkin Elmer, catalog numberTRF0200). Incubation with the detection mix for a further 60 min allowed binding of antibody to the phospho-Ulight™ CREBtide. The fluorescence emissions at 620 nm and 665 nm after excitation at 350 nm was measured using Envision reader. The ratio of the emissions at 665 nm and at 620 nm provided the measure for the amount of phosphorylated CREBtide product of AKT1 E17K kinase activity. To determine the IC50 values, the data was normalized (enzyme reaction without inhibitor=0% inhibition, all other assay components but no enzyme=100% inhibition) and IC50 values were calculated by a 4-parameter fit using an in-house developed protocol.

wildtype AKT1 = molecular target: T2, wildtype AKT1 (Homo sapiens, UniProt P31749); assay: AKT1 kinase assay, wildtype (TR-FRET, Lance); type: biochemical; details: full-length human recombinant wildtype AKT1 activated by PDPK1; Ulight-CREBtide substrate; either 50 μM ATP or 2 mM ATP
T2 construct: Purified human recombinant kinase full-length wildtype AKT1 was expressed in insect cells; made in house; host or cells: insect cells
T2 sequence (P31749 whole entry): as the sequence (P31749 whole entry E17K) above, with K17E counted along it
Method: AKT1 kinase assay: Inhibitory effects of compounds on wildtype AKT1 were undertaken in a 10-pt dose response kinase activity assay measuring phospho-peptide product formation based on TR-FRET signal as described in the following paragraph.
as §1, with “full-length wildtype” for “full-length”, “AKT1” for “AKT1 E17K”, “nM AKT1,” for “nM AKT1 E17K,”, “Mix (PerkinElmer.” for “Mix (PerkinElmer,”

Row | IC50 (AKT1 E17K) | IC50 (wildtype AKT1) | SMILES
1 | 50 to 200 nM | < 500 nM | Cc1cc(O)n(-c2ccc(C(=O)NCc3ccc(-n4c(-c5cccnc5N)nc5ccc(-c6ccccc6)nc54)cc3)cc2)n1 [Compound I-1, N-(4-(2-(2-aminopyridin-3-yl)-5-phenyl-3H-imidazo[4,5-b]pyridin-3-yl)benzyl)-4-(3-methyl-5-oxo-4,5-dihydro-1H-pyrazol-1-yl)benzamide]
2 | 200 to 500 nM | < 500 nM | COc1cc(C)nn1-c1ccc(C(=O)NCc2ccc(-n3c(-c4cccnc4N)nc4ccc(-c5ccccc5)nc43)cc2)cc1 [Compound I-2, N-(4-(2-(2-aminopyridin-3-yl)-5-phenyl-3H-imidazo[4,5-b]pyridin-3-yl)benzyl)-4-(5-methoxy-3-methyl-1H-pyrazol-1-yl)benzamide]
3 | ≥ 500 nM | < 500 nM | Cc1cc(O)n(-c2cccc(C(=O)NCc3ccc(-n4c(-c5cccnc5N)nc5ccc(-c6ccccc6)nc54)cc3)c2)n1 [Compound I-3, N-(4-(2-(2-aminopyridin-3-yl)-5-phenyl-3H-imidazo[4,5-b]pyridin-3-yl)benzyl)-3-(5-hydroxy-3-methyl-1H-pyrazol-1-yl)benzamide]
4 | 50 to 200 nM | < 500 nM | Cc1cc(O)n(-c2ccc(C(=O)NCc3ccc(-n4c(-c5cccnc5N)nc5ccc(-c6ccccc6)nc54)cc3)c(F)c2)n1 [Compound I-4, N-[[4-[2-(2-amino-3-pyridyl)-5-phenyl-imidazo[4,5-b]pyridin-3-yl]phenyl]methyl]-2-fluoro-4-(5-hydroxy-3-methyl-pyrazol-1-yl)benzamide]
5 | 50 to 200 nM | < 500 nM | Cc1cc(O)n(-c2ccc(C(=O)NCc3ccc(-n4c(-c5cccnc5N)nc5ccc(-c6ccccc6)nc54)cc3)cc2F)n1 [Compound I-5, N-[[4-[2-(2-amino-3-pyridyl)-5-phenyl-imidazo[4,5-b]pyridin-3-yl]phenyl]methyl]-3-fluoro-4-(5-hydroxy-3-methyl-pyrazol-1-yl)benzamide]
6 | 200 to 500 nM | < 500 nM | Nc1ncccc1-c1nc2ccc(-c3ccccc3)nc2n1-c1ccc(CNC(=O)c2ccc(-n3nc(C(F)(F)F)cc3O)cc2)cc1 [Compound I-6, N-(4-(2-(2-aminopyridin-3-yl)-5-phenyl-3H-imidazo[4,5-b]pyridin-3-yl)benzyl)-4-(5-hydroxy-3-(trifluoromethyl)-1H-pyrazol-1-yl)benzamide]
7 | ≥ 500 nM | < 500 nM | Nc1ncccc1-c1nc2ccc(-c3ccccc3)nc2n1-c1ccc(CNC(=O)c2cccc(-n3nc(C(F)(F)F)cc3O)c2)cc1 [Compound I-7, N-(4-(2-(2-aminopyridin-3-yl)-5-phenyl-3H-imidazo[4,5-b]pyridin-3-yl)benzyl)-3-(5-hydroxy-3-(trifluoromethyl)-1H-pyrazol-1-yl)benzamide]
8 | ≥ 500 nM | < 500 nM | Nc1ncccc1-c1nc2ccc(-c3ccccc3)nc2n1-c1ccc(CNC(=O)c2ccc(-n3nc(-c4ccccc4)cc3O)cc2)cc1 [Compound I-8, N-(4-(2-(2-aminopyridin-3-yl)-5-phenyl-3H-imidazo[4,5-b]pyridin-3-yl)benzyl)-4-(5-hydroxy-3-phenyl-1H-pyrazol-1-yl)benzamide]
9 | 50 to 200 nM | < 500 nM | COC(=O)Cc1cc(O)n(-c2ccc(C(=O)NCc3ccc(-n4c(-c5cccnc5N)nc5ccc(-c6ccccc6)nc54)cc3)cc2)n1 [Compound I-9, Methyl 2-(1-(4-((4-(2-(2-aminopyridin-3-yl)-5-phenyl-3H-imidazo[4,5-b]pyridin-3-yl)benzyl)carbamoyl)phenyl)-5-hydroxy-1H-pyrazol-3-yl)acetate]
10 | < 50 nM | < 500 nM | Nc1ncccc1-c1nc2ccc(-c3ccccc3)nc2n1-c1ccc(CNC(=O)c2ccc(-n3nc(CC(=O)O)cc3O)cc2)cc1 [Compound I-10, 2-(1-(4-((4-(2-(2-aminopyridin-3-yl)-5-phenyl-3H-imidazo[4,5-b]pyridin-3-yl)benzyl)carbamoyl)phenyl)-5-hydroxy-1H-pyrazol-3-yl)acetic acid]
11 | < 50 nM | < 500 nM | Nc1ncccc1-c1nc2ccc(-c3ccccc3)nc2n1-c1ccc(CNC(=O)c2ccc(-n3cc(C(=O)O)cn3)cc2)cc1 [Compound I-11, 1-(4-((4-(2-(2-aminopyridin-3-yl)-5-phenyl-3H-imidazo[4,5-b]pyridin-3-yl)benzyl)carbamoyl)phenyl)-1H-pyrazole-4-carboxylic acid]
12 | 200 to 500 nM | < 500 nM | N#Cc1cnn(-c2ccc(C(=O)NCc3ccc(-n4c(-c5cccnc5N)nc5ccc(-c6ccccc6)nc54)cc3)cc2)c1 [Compound I-12, N-(4-(2-(2-aminopyridin-3-yl)-5-phenyl-3H-imidazo[4,5-b]pyridin-3-yl)benzyl)-4-(4-cyano-1H-pyrazol-1-yl)benzamide]
13 | 200 to 500 nM | < 500 nM | Cc1cc(C#N)n(-c2ccc(C(=O)NCc3ccc(-n4c(-c5cccnc5N)nc5ccc(-c6ccccc6)nc54)cc3)cc2)n1 [Compound I-13, N-(4-(2-(2-aminopyridin-3-yl)-5-phenyl-3H-imidazo[4,5-b]pyridin-3-yl)benzyl)-4-(5-cyano-3-methyl-1H-pyrazol-1-yl)benzamide]
14 | 50 to 200 nM | < 500 nM | N#Cc1cc(O)n(-c2ccc(C(=O)NCc3ccc(-n4c(-c5cccnc5N)nc5ccc(-c6ccccc6)nc54)cc3)cc2)n1 [Compound I-15, N-(4-(2-(2-aminopyridin-3-yl)-5-phenyl-3H-imidazo[4,5-b]pyridin-3-yl)benzyl)-4-(3-cyano-5-hydroxy-1H-pyrazol-1-yl)benzamide]
15 | 200 to 500 nM | < 500 nM | Cc1cc(C(N)=O)n(-c2ccc(C(=O)NCc3ccc(-n4c(-c5cccnc5N)nc5ccc(-c6ccccc6)nc54)cc3)cc2)n1 [Compound I-16, 1-(4-((4-(2-(2-aminopyridin-3-yl)-5-phenyl-3H-imidazo[4,5-b]pyridin-3-yl)benzyl)carbamoyl)phenyl)-3-methyl-1H-pyrazole-5-carboxamide]
16 | 200 to 500 nM | < 500 nM | Cc1cc(C(N)=O)nn1-c1ccc(C(=O)NCc2ccc(-n3c(-c4cccnc4N)nc4ccc(-c5ccccc5)nc43)cc2)cc1 [Compound I-17, 1-(4-((4-(2-(2-aminopyridin-3-yl)-5-phenyl-3H-imidazo[4,5-b]pyridin-3-yl)benzyl)carbamoyl)phenyl)-5-methyl-1H-pyrazole-3-carboxamide]
17 | < 50 nM | < 500 nM | Cc1cc(O)n(-c2ccc(C(=O)NCc3ccc(-n4c(-c5cccnc5N)nc5ccc(-c6ccccc6)nc54)cc3)cn2)n1 [Compound I-18, N-(4-(2-(2-aminopyridin-3-yl)-5-phenyl-3H-imidazo[4,5-b]pyridin-3-yl)benzyl)-6-(5-hydroxy-3-methyl-1H-pyrazol-1-yl)nicotinamide]
18 | 200 to 500 nM | < 500 nM | Cc1cc(O)n(-c2ccc(C(=O)NCc3ccc(-n4c(-c5cccnc5N)nc5ccc(-c6ccccc6)nc54)cc3)nc2)n1 [Compound I-19, N-(4-(2-(2-aminopyridin-3-yl)-5-phenyl-3H-imidazo[4,5-b]pyridin-3-yl)benzyl)-5-(5-hydroxy-3-methyl-1H-pyrazol-1-yl)picolinamide]
